Results as given in patent US10426758B2, “Sibiriline derivatives for use for preventing and/or treating disorders associated with cellular necroptosis” (Institut National de la Sante et de la Recherche Medicale …, priority 2015, dated 2019).

What was measured:
[1] = system: Jurkat FADD-deficient I 2.1 cell line; assay: Cell-based screening: TNF-α-induced necroptosis in Jurkat FADD-deficient cells, MTS viability assay; parameters: species or system human
Source text: TNF-α can induce necroptosis in Jurkat cells (human T lymphocytes) when FADD is deleted. This model was used to screen various libraries of chemical compounds for characterization of new inhibitors of cellular necroptosis. Details on this cell-based assay can be found in (Miao and Degterev, Methods Mol. Biol. 2009, 559, 79-93). The Jurkat FADD-deficient I 2.1 cell line used was purchased from ATCC and was maintained in RPMI 1640 medium (Gibco) containing Glutamax and 15% fetal calf serum (Life Technology). Necroptosis was induced by addition of 10 ng/ml of human recombinant TNF-α (Life Technology). Necrostatin-1 (Nec-1, Enzo Life Sciences) was used as model necroptosis inhibitor. Cells were maintained in 75 cm^2 flask and passed every 2 or 3 days. Chemical collections analysed were formatted in 96-well plates with 80 molecules per plates at 10 mM in 100% DMSO. For each collection plate, 2 cell plates were seeded (one necroptosis-induced with TNF-α and the other without TNF-α). Cells were seeded at 20000 cells/well, in 40 μl of medium, in a 96-well clear, flat bottom plate (CytoOne, Starlab) before treatment. Then, 40 μl of medium with or without TNF-α at 25 ng/ml were added to all wells in the corresponding plate. Immediately after TNF-α addition, 20 μl of diluted compound at 50 μM were added to the plates. Final concentration of each chemical compound was 10 μM at 0.1% DMSO. Four positives (Nec-1 at 10 μM final) and four negative (DMSO) controls were used in each plate to validate the assay. Cells were incubated at 37° C., 5% CO2 for 24 hours before performing MTS viability assay, described hereafter. Compounds were diluted before to treat cells. Liquid handling was performed using the Nimbus Microlab liquid handler (Hamilton Robotics) under microbiological safety workbench. The 10 mM compounds were diluted at 50 μM directly in cell medium.

[2] = system: Jurkat FADD-deficient cells (Jurkat FADD−/−); assay: Anti-necroptotic effect, Jurkat FADD-deficient cells, TNF, FACS of propidium iodide-stained nuclei; format: cell-based, human
Method: L929 cells, L929AsFas cells, Jurkat FADD-deficient cells (Jurkat FADD^−/−), U937 cells are pretreated for 1 h with increased concentrations of Sib (0, 5, 10, 20 μM) and then treated respectively with TNF-α (10 ng/ml)+zVAD (20 μM), FasL (200 ng/ml)+zVAD (20 μM), TNF-α (10 ng/ml), TRAIL (200 ng/ml)+zVAD (30 μM) or TRAIL (200 ng/ml)+zVAD (30 μM)+CHX (1 μg/ml). % of cell death is determined after 24 h and calculated by a FACS analysis of Propidium Iodide-stained nuclei. In each case, the EC50 is determined as well as the % of rescue from cell death.

[3] = system: murine model of acute hepatitis (concanavalin A-induced hepatitis); assay: Concanavalin A-induced acute hepatitis in mice; format: in vivo, C57Bl/6 WT mice
Method: We use a murine model of acute hepatitis (concanavalin A-induced hepatitis) that depends on necroptosis induction (Jouan-Lanhouet et al. Semin. Cell. Dev. Biol. 2014, 35, 2-13). Sib is diluted in 50% PBS/50% DMSO.
C57Bl/6 WT mice were pre-treated or not with 3, 6 or 9 mg/kg Sib or 6.25 mg/kg Nec-1s injected by intraperitoneal route 1 hour before treatment or not with 12 mg/kg Con A for 10 h (intravenous route) (50% PBS/50% DMSO, n=5; 50% PBS/50% DMSO+Con A, n=5; 3 mg/kg Sib+Con A, n=5; 6 mg/kg Sib+Con A, n=5; 9 mg/kg Sib+Con A, n=5; 6.25 mg/kg Nec-1s+Con A, n=5).

SMILES: Oc1ccc(-c2cc3cccnc3[nH]2)cc1 [compound 2, 4-(1H-pyrrolo[2,3-b]pyridin-2-yl)phenol]
- EC50 ([1]; Homo sapiens, Jurkat, necroptosis induced by 10 ng/ml TNF-α, 24 hours, MTS viability): 1.3 µM
- inhibition of necroptosis induced by TNF-α (figure legend) ([1]; human T lymphocyte, Jurkat FADD deficient cell line): dose-dependent inhibition
- EC50 ([2]; Homo sapiens, 1 h pretreatment, cell death after 24 h): 1.2 µM
- % Rescue ([2]; rescue from cell death, 24 h): 90%
- AST and ALT levels and protection from Con A-induced hepatitis ([3]; Sib 9 mg/kg intraperitoneal 1 hour before 12 mg/kg Con A for 10 h): This protection is not observed
- AST and ALT levels and protection from Con A-induced hepatitis ([3]; Sib 3 or 6 mg/kg intraperitoneal 1 hour before 12 mg/kg Con A for 10 h): has a tendency to decrease AST and ALT levels and to protect mice from Con A-induced hepatitis
- serum aminotransaminases (ALT, AST) levels induced by ConA (figure legend) ([3]; dose of 3 mg/kg): decreases these serum transaminase levels
